In publication PMC10257182, “Discovery of senolytics using machine learning” (Nature Communications, 2023):
Values joined by “and” are separate entries in the source; they are usually repeats but may differ in a detail not shown here. Equal values may be shown once. Where a name gives a salt, the structure may show the parent alone. Read-outs that look alike come from different tables or passages of the source.

Test system: senescent IMR90 ER:RAS cells (4-OHT-induced)
Assay: Nuclei count (Hoechst, high content imaging) senolytic assay, oncogene-induced senescence (OIS) model, senescent cells
Format: cell-based, human
Conditions: for Mean % Cell Survival: mean n=3 (Fig 3C)
Text: To test for senolytic activity, we compared the effect of each compound on the total cell number (automated high content image-based analysis of total number of nuclei per well) in non-senescent and senescent IMR90 ER:RAS cultures treated with the top hits from the computational screen (Figs. 2e and 3a–d and Supplementary Fig. 4a–c). The drop in cell number compared to untreated controls is indicated by the nuclei count and reflects cell death[13],[15]. As positive control, we employed ouabain, a cardiac glycoside with well characterised senolytic activity.
We performed experimental validation of the compounds with z-score > 8 (Fig. 2e). […] We employed two cellular models of senescence: one of OIS and a second one of TIS. For the OIS case, we utilised IMR90 ER:RAS cells with 4-OHT at 100 nM. […] For the TIS model, we used A549 cells with etoposide at 100 μM. The exposure of the cells to etoposide lasted 48 h, after which period the cells were cultivated for a further three days with normal media.
IMR90 (CCL-186) human foetal lung fibroblasts and A549 (CCL-185) human lung adenocarcinoma cells were obtained from the American Type Culture Collection (ATCC, Manassas, VA). The cell lines were confirmed to be mycoplasma negative (Lonza MycoAlert, cat #LT07-118). IMR90 ER:RAS is a derivative of IMR90 cells expressing a switchable version of oncogenic H-Ras[84]. IMR90 ER:RAS and A549 cells were maintained in Dulbecco’s Modified Eagle Medium (DMEM, ThermoFisher) supplemented with foetal bovine serum (10%), L-glutamine (2 mM, ThermoFisher), and antibiotic-antimycotic solution (1%, ThermoFisher) and incubated under standard tissue culture conditions (37 °C and 5% CO2). For induction of the senescent phenotype, IMR90-ER:RAS cells were cultured in hydroxytamoxifen (4-OHT) (Sigma) added media at 100 nM final concentration. IMR90 were kept in culture for over 27 passages for replicative senescence. Cells were tested for mycoplasma on a regular basis.
Cells were seeded (50 μL per well) into 384-well plates (IMR90 ER:RAS cells in Nunc Optical Bottom Polybase Microplates [#142761, Thermo Scientific, Rochester, NY] and A549 cells in CELLSTAR Cell Culture Microplates [#781091, Greiner Bio-One, Kremsmünster, Austria]). Cells were incubated under standard tissue culture conditions for 24 h before the addition of compounds. Passage 14 IMR90 ER:RAS cells were seeded at 1300 cells per well in the control condition, and at 1600 cells per well in the senescent case. Passage 34 A549 cells were seeded at 7000 cells per well in the control condition, and at 10,000 cells per well in the senescent case.
Dose response plates were prepared with a DMSO control and a 10-point […] concentration range, and added to the compounds using a D300e digital dispenser (Tecan Trading AG, Switzerland) at a final concentration of between 10 μM and 10 nM. Every screened condition was carried out in triplicate. After 72 h of incubation with exposure to the compounds, cells were fixed by the addition of an equal volume of formaldehyde (8%, 50 μL; #BP531-500, Fisher Bioreagents, Fisher Scientific, Loughborough, Leicestershire) to the existing media, incubated at room temperature (30 min), and washed three times in phosphate-buffered saline (PBS). Cells were then permeabilised in Triton-X100 (0.1%, 50 μL) and incubated at room temperature (30 min) followed by three more washes with PBS.
Cells were stained with Hoechst 33342 for nuclei count (excitation/emission wavelength at 387/447 […], DAPI channel, original concentration at 10 mg/ml, final concentration at 2 μg/ml; H1399, Molecular Probes, Eugene, OR). The staining solution was prepared in bovine serum albumin solution (10%). The staining solution was added to each well (30 μL) and incubated in the dark at room temperature (30 min), followed by three washes with PBS and no final aspiration. Plates were foil sealed.

SMILES: CC(C)=CCc1c(O)cc2oc3cc(O)c(O)c(CC=C(C)C)c3c(=O)c2c1O [Gamma mangostin, gamma mangostin]
- % Cell Survival (Senescent cells, log (dose) [M] -5, individual replicates, SUP FIG 4C): 68.9759% and 85.4054% and 104.1% and 60.479%
- % Cell Survival (Senescent cells, log (dose) [M] -5.33, individual replicates, SUP FIG 4C): 98.1928% and 112.613% and 125.668% and 83.9521%
- % Cell Survival (Senescent cells, log (dose) [M] -5.66, individual replicates, SUP FIG 4C): 81.0241% and 178.198% and 139.216% and 80.9581%
- % Cell Survival (Senescent cells, log (dose) [M] -6, individual replicates, SUP FIG 4C): 64.6084% and 123.964% and 135.651% and 83.2335%
- % Cell Survival (Senescent cells, log (dose) [M] -6.33, individual replicates, SUP FIG 4C): 91.7169% and 121.982% and 131.907% and 40.8383%
- % Cell Survival (Senescent cells, log (dose) [M] -6.66, individual replicates, SUP FIG 4C): 78.1627% and 116.757% and 113.904% and 77.1257%
- % Cell Survival (Senescent cells, log (dose) [M] -7, individual replicates, SUP FIG 4C): 99.8494% and 112.432% and 120.856% and 67.0659%
- % Cell Survival (Senescent cells, log (dose) [M] -7.33, individual replicates, SUP FIG 4C): 98.3434% and 101.081% and 114.082% and 90.8982%
- % Cell Survival (Senescent cells, log (dose) [M] -7.66, individual replicates, SUP FIG 4C): 107.681% and 108.829% and 116.934% and 93.4132%
- % Cell Survival (Senescent cells, log (dose) [M] -8, individual replicates, SUP FIG 4C): 107.53% and 115.315% and 113.725% and 84.9102%
- Mean % Cell Survival (Senescent, log (dose) [M] -5, 72 h): 79.74%
- Mean % Cell Survival (Senescent, log (dose) [M] -5.33, 72 h): 105.106%
- Mean % Cell Survival (Senescent, log (dose) [M] -5.66, 72 h): 119.849%
- Mean % Cell Survival (Senescent, log (dose) [M] -6, 72 h): 101.864%
- Mean % Cell Survival (Senescent, log (dose) [M] -6.33, 72 h): 96.6111%
- Mean % Cell Survival (Senescent, log (dose) [M] -6.66, 72 h): 96.4872%
- Mean % Cell Survival (Senescent, log (dose) [M] -7, 72 h): 100.051%
- Mean % Cell Survival (Senescent, log (dose) [M] -7.33, 72 h): 101.101%
- Mean % Cell Survival (Senescent, log (dose) [M] -7.66, 72 h): 106.714%
- Mean % Cell Survival (Senescent, log (dose) [M] -8, 72 h): 105.37%
- % Cell Survival (Senescent, log (dose) [M] -5): 105.907% and 101.805% and 105.566%
- % Cell Survival (Senescent, log (dose) [M] -5.33): 105.42% and 104.907% and 107.486%
- % Cell Survival (Senescent, log (dose) [M] -5.66): 112.424% and 103.215% and 110.173%
- % Cell Survival (Senescent, log (dose) [M] -6): 104.019% and 94.1906% and 105.054%
- % Cell Survival (Senescent, log (dose) [M] -6.33): 116.322% and 101.974% and 111.9%
- % Cell Survival (Senescent, log (dose) [M] -6.66): 112.85% and 97.8003% and 108.125%
- % Cell Survival (Senescent, log (dose) [M] -7): 120.95% and 109.419% and 113.308%
- % Cell Survival (Senescent, log (dose) [M] -7.33): 110.231% and 111.901% and 120.282%
- % Cell Survival (Senescent, log (dose) [M] -7.66): 99.6955% and 109.475% and 108.701%
- % Cell Survival (Senescent, log (dose) [M] -8): 101.705% and 108.629% and 104.99%

SMILES: C[C@H](CCC(=O)NCCS(=O)(=O)O)[C@H]1CC[C@H]2[C@@H]3[C@H](O)C[C@@H]4C[C@H](O)CC[C@]4(C)[C@H]3C[C@H](O)[C@]12C [Taurocholic acid sodium, taurocholic acid sodium salt hydrate]
- viability at 10 µM (Homo sapiens, IMR-90, 72 h, read-out: Mean % Cell Survival, Senescent, log (dose) [M] -5, 72 h, mean n=3 (Fig 3C)): 110%
- viability at 4.677 µM (Homo sapiens, IMR-90, 72 h, read-out: Mean % Cell Survival, Senescent, log (dose) [M] -5.33, 72 h, mean n=3 (Fig 3C)): 132%
- viability at 2.188 µM (Homo sapiens, IMR-90, 72 h, read-out: Mean % Cell Survival, Senescent, log (dose) [M] -5.66, 72 h, mean n=3 (Fig 3C)): 115%
- viability at 1 µM (Homo sapiens, IMR-90, 72 h, read-out: Mean % Cell Survival, Senescent, log (dose) [M] -6, 72 h, mean n=3 (Fig 3C)): 123%
- viability at 0.4677 µM (Homo sapiens, IMR-90, 72 h, read-out: Mean % Cell Survival, Senescent, log (dose) [M] -6.33, 72 h, mean n=3 (Fig 3C)): 106%
- viability at 0.2188 µM (Homo sapiens, IMR-90, 72 h, read-out: Mean % Cell Survival, Senescent, log (dose) [M] -6.66, 72 h, mean n=3 (Fig 3C)): 99.8%
- viability at 0.1 µM (Homo sapiens, IMR-90, 72 h, read-out: Mean % Cell Survival, Senescent, log (dose) [M] -7, 72 h, mean n=3 (Fig 3C)): 96.6%
- viability at 0.04677 µM (Homo sapiens, IMR-90, 72 h, read-out: Mean % Cell Survival, Senescent, log (dose) [M] -7.33, 72 h, mean n=3 (Fig 3C)): 108%
- viability at 0.02188 µM (Homo sapiens, IMR-90, 72 h, read-out: Mean % Cell Survival, Senescent, log (dose) [M] -7.66, 72 h, mean n=3 (Fig 3C)): 112%
- viability at 0.01 µM (Homo sapiens, IMR-90, 72 h, read-out: Mean % Cell Survival, Senescent, log (dose) [M] -8, 72 h, mean n=3 (Fig 3C)): 107%
- viability at 0.2188 µM (Homo sapiens, IMR-90, read-out: % Cell Survival, Senescent cells, log (dose) [M] -6.66, individual replicates, SUP FIG 4C): 105%
- viability at 0.1 µM (Homo sapiens, IMR-90, read-out: % Cell Survival, Senescent cells, log (dose) [M] -7, individual replicates, SUP FIG 4C): 101%
- viability at 4.677 µM (Homo sapiens, IMR-90, read-out: % Cell Survival, Senescent, log (dose) [M] -5.33): 118%
- senolytic activity (in words) (experimental screen, OIS IMR90 ER:RAS): inactive
